Measured values reported in US10047050B2, “3,4-di-substituted pyridine compound, methods of using and compositions comprising the same” (ARDEA BIOSCIENCES, INC., priority 2011, dated 2018).
Where “and” joins values, the source holds several entries; their conditions need not be identical. Equal values may be shown once.

System: serum uric acid
Assay: Multi-dose Phase I clinical trial, serum uric acid (sUA), once daily for 10 days
Format: in vivo, human
Settings: for % sUA change (from baseline), Mean (3-11) / Absolute sUA concentration, Mean (3-11): group 9, 10 mg once daily for 10 days, mean of subjects 3-11; for % sUA change (from baseline), Mean (4-12) / Absolute sUA concentration, Mean (4-12) / Absolute sUA concentration: group 7, 1 mg once daily for 10 days; for % sUA change (from baseline), Mean (4-12) / Absolute sUA concentration, Mean (4-12): mean of subjects 4-12; for Absolute sUA concentration: individual subjects 4-12
From the text: A Phase 1, Randomized, Double-Blind, Placebo-Controlled Study to Evaluate Safety, Tolerability, Pharmacokinetics and Preliminary Food Effect of Multiple Rising Doses of a URAT1 Inhibitor, in Healthy Adult Male Volunteers.
Fasted subjects receive oral doses of active or placebo, once daily, for 10 days, at the following doses:
36 subjects in 3 dose groups, 12 subjects/group, are randomized […] to receive active (9/group) or placebo ([…]). All study procedures are the same regardless of whether subject receives active or placebo. Total duration of subject participation, including screening period, is ˜2-4 weeks, and the total volume of blood collected from each subject during the entire study <500 mL, (less than typically collected during a volunteer blood donation).
5 mg, active and placebo, tablets packaged in 35 count HDPE bottles, stored at controlled room temperature (15-30° C.). Placebo tablets are designed to match the active tablets—identical size, form, taste, and color, and containing the same excipients. 1 mg doses were administered as oral solutions.
Subjects dosed in the morning of Days 1-10 with ˜240 mL of room temp water.
Urine, serum and plasma samples collected periodically
PD samples frozen (−20° C.) and stored; all samples from a given subject assayed in a single analytical run.

Q: Which results are given for `CC(C)(Sc1ccncc1-c1ccc(C#N)c2ccccc12)C(=O)O` [2-((3-(4-cyanonaphthalen-1-yl)pyridin-4-yl)thio)-2-methylpropanoic acid]?
A: % sUA change (from baseline), Mean (3-11) (Time 0 (baseline)): 0%; Absolute sUA concentration, Mean (3-11) (Time 0 (baseline)): 6.4 mg/dL; % sUA change (from baseline), Mean (3-11) (Time 6): −30.2%; Absolute sUA concentration, Mean (3-11) (Time 6): 4.5 mg/dL; % sUA change (from baseline), Mean (3-11) (Time 12): −36.8%; Absolute sUA concentration, Mean (3-11) (Time 12): 4.1 mg/dL; % sUA change (from baseline), Mean (3-11) (Time 24): −32.0%; Absolute sUA concentration, Mean (3-11) (Time 24): 4.4 mg/dL; % sUA change (from baseline), Mean (3-11) (Time 48): −35.0%; Absolute sUA concentration, Mean (3-11) (Time 48): 4.1 mg/dL; % sUA change (from baseline), Mean (3-11) (Time 72): −49.7%; Absolute sUA concentration, Mean (3-11) (Time 72): 3.2 mg/dL; % sUA change (from baseline), Mean (3-11) (Time 96): −53.7%; Absolute sUA concentration, Mean (3-11) (Time 96): 3.0 mg/dL; % sUA change (from baseline), Mean (3-11) (Time 102): −55.2%; Absolute sUA concentration, Mean (3-11) (Time 102): 2.9 mg/dL; % sUA change (from baseline), Mean (3-11) (Time 108): −57.2%; Absolute sUA concentration, Mean (3-11) (Time 108): 2.7 mg/dL; % sUA change (from baseline), Mean (3-11) (Time 120): −47.0%; Absolute sUA concentration, Mean (3-11) (Time 120): 3.4 mg/dL; % sUA change (from baseline), Mean (3-11) (Time 144): −44.3%; Absolute sUA concentration, Mean (3-11) (Time 144): 3.5 mg/dL; % sUA change (from baseline), Mean (3-11) (Time 168): −49.6%; Absolute sUA concentration, Mean (3-11) (Time 168): 3.2 mg/dL; % sUA change (from baseline), Mean (3-11) (Time 192): −55.8%; Absolute sUA concentration, Mean (3-11) (Time 192): 2.8 mg/dL; % sUA change (from baseline), Mean (3-11) (Time 216): −51.3%; Absolute sUA concentration, Mean (3-11) (Time 216): 3.1 mg/dL; % sUA change (from baseline), Mean (3-11) (Time 222, post dosing): −56.1%; Absolute sUA concentration, Mean (3-11) (Time 222, post dosing): 2.8 mg/dL; % sUA change (from baseline), Mean (3-11) (Time 228, post dosing): −57.8%; Absolute sUA concentration, Mean (3-11) (Time 228, post dosing): 2.7 mg/dL; % sUA change (from baseline), Mean (3-11) (Time 240, post dosing): −48.6%; Absolute sUA concentration, Mean (3-11) (Time 240, post dosing): 3.3 mg/dL; % sUA change (from baseline), Mean (3-11) (Time 246, post dosing): −42.8%; Absolute sUA concentration, Mean (3-11) (Time 246, post dosing): 3.7 mg/dL; % sUA change (from baseline), Mean (3-11) (Time 252, post dosing): −43.6%; Absolute sUA concentration, Mean (3-11) (Time 252, post dosing): 3.6 mg/dL; % sUA change (from baseline), Mean (3-11) (Time 264, post dosing): −38.9%; Absolute sUA concentration, Mean (3-11) (Time 264, post dosing): 3.9 mg/dL; % sUA change (from baseline), Mean (3-11) (Time 270, post dosing): −36.1%; Absolute sUA concentration, Mean (3-11) (Time 270, post dosing): 4.1 mg/dL; % sUA change (from baseline), Mean (3-11) (Time 288, post dosing): −35.1%; Absolute sUA concentration, Mean (3-11) (Time 288, post dosing): 4.2 mg/dL; % sUA change (from baseline), Mean (3-11) (Time 312, post dosing): −25.9%; Absolute sUA concentration, Mean (3-11) (Time 312, post dosing): 4.7 mg/dL; % sUA change (from baseline), Mean (4-12) (Time 0): 0%; Absolute sUA concentration, Mean (4-12) (Time 0): 6.2 mg/dL; % sUA change (from baseline), Mean (4-12) (Time 6): −3.0%; Absolute sUA concentration, Mean (4-12) (Time 6): 6.0 mg/dL; % sUA change (from baseline), Mean (4-12) (Time 12): −9.2%; Absolute sUA concentration, Mean (4-12) (Time 12): 5.6 mg/dL; % sUA change (from baseline), Mean (4-12) (Time 24): 1.4%; Absolute sUA concentration, Mean (4-12) (Time 24): 6.2 mg/dL; % sUA change (from baseline), Mean (4-12) (Time 48): −17.6%; Absolute sUA concentration, Mean (4-12) (Time 48): 5.1 mg/dL; % sUA change (from baseline), Mean (4-12) (Time 72): −3.4%; Absolute sUA concentration, Mean (4-12) (Time 72): 6.0 mg/dL; Absolute sUA concentration (Time 96): 5.0 mg/dL (2×) and 5.1 mg/dL (2×) and 6.7 mg/dL (2×) and 6.1 mg/dL and 6.0 mg/dL and 5.5 mg/dL; % sUA change (from baseline), Mean (4-12) (Time 96): −7.9%; Absolute sUA concentration, Mean (4-12) (Time 96): 5.7 mg/dL; Absolute sUA concentration (Time 102): 4.4 mg/dL and 4.9 mg/dL (2×) and 6.2 mg/dL (2×) and 5.9 mg/dL and 5.7 mg/dL and 4.6 mg/dL and 5.4 mg/dL; % sUA change (from baseline), Mean (4-12) (Time 102): −13.2%; Absolute sUA concentration, Mean (4-12) (Time 102): 5.4 mg/dL; Absolute sUA concentration (Time 108): 4.1 mg/dL and 4.4 mg/dL and 4.8 mg/dL and 6.1 mg/dL and 5.9 mg/dL and 5.4 mg/dL and 5.6 mg/dL and 4.3 mg/dL and 5.0 mg/dL; % sUA change (from baseline), Mean (4-12) (Time 108): −18.0%; Absolute sUA concentration, Mean (4-12) (Time 108): 5.1 mg/dL; Absolute sUA concentration (Time 120): 4.6 mg/dL and 5.0 mg/dL (2×) and 4.9 mg/dL and 6.6 mg/dL and 6.2 mg/dL (2×) and 5.8 mg/dL and 5.6 mg/dL; % sUA change (from baseline), Mean (4-12) (Time 120): −10.3%; Absolute sUA concentration, Mean (4-12) (Time 120): 5.5 mg/dL; Absolute sUA concentration (Time 144): 4.6 mg/dL and 5.0 mg/dL (2×) and 4.8 mg/dL and 6.5 mg/dL and 6.2 mg/dL and 6.1 mg/dL and 5.8 mg/dL and 5.5 mg/dL; % sUA change (from baseline), Mean (4-12) (Time 144): −11.0%; Absolute sUA concentration, Mean (4-12) (Time 144): 5.5 mg/dL; Absolute sUA concentration (Time 168): 5.2 mg/dL and 5.8 mg/dL and 5.6 mg/dL and 7.2 mg/dL and 6.8 mg/dL and 6.3 mg/dL and 6.5 mg/dL and 5.4 mg/dL and 6.2 mg/dL; % sUA change (from baseline), Mean (4-12) (Time 168): −0.8%
